Experimental data as given in PubChem BioAssay (NCI).
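Results reflect a 48-hour exposure of cells in 96-well plates to compound at five concentrations. GI50 is the concentration that inhibits growth by half. Definition used: TGI = concentration required for complete inhibition of growth.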

Columns and labels:
Experiment in all cases: inhibition of tumour cell growth, NCI panel, 48 h
UACC-257 melanoma = test system: UACC-257 melanoma
MOLT-4 leukemia = test system: MOLT-4 leukemia
RPMI-8226 leukemia = test system: RPMI-8226 leukemia
MDA-MB-468 breast = test system: MDA-MB-468 breast
HL-60(TB) leukemia = test system: HL-60(TB) leukemia
HS 578T breast = test system: HS 578T breast
HCT-116 colon = test system: HCT-116 colon
NCI-H226 lung = test system: NCI-H226 lung
KM12 colon = test system: KM12 colon
OVCAR-8 ovarian = test system: OVCAR-8 ovarian
ACHN renal = test system: ACHN renal
COLO 205 colon = test system: COLO 205 colon
MALME-3M melanoma = test system: MALME-3M melanoma
MDA-MB-435 = test system: MDA-MB-435
SN12C renal = test system: SN12C renal
OVCAR-4 ovarian = test system: OVCAR-4 ovarian
M14 melanoma = test system: M14 melanoma
NCI/ADR-RES ovarian = test system: NCI/ADR-RES ovarian
HOP-92 NSCLC = test system: HOP-92 NSCLC
SK-MEL-2 melanoma = test system: SK-MEL-2 melanoma
SW-620 colon = test system: SW-620 colon
TK-10 renal = test system: TK-10 renal
SK-MEL-5 melanoma = test system: SK-MEL-5 melanoma
OVCAR-5 ovarian = test system: OVCAR-5 ovarian
BT-549 breast = test system: BT-549 breast
CAKI-1 renal = test system: CAKI-1 renal
NCI-H522 lung = test system: NCI-H522 lung
U251 CNS = test system: U251 CNS
K-562 leukemia = test system: K-562 leukemia
MCF7 breast = test system: MCF7 breast
HT29 colon = test system: HT29 colon
A498 renal = test system: A498 renal
NCI-H23 lung = test system: NCI-H23 lung
T-47D breast = test system: T-47D breast
SF-539 CNS = test system: SF-539 CNS
SK-MEL-28 melanoma = test system: SK-MEL-28 melanoma
IGROV1 ovarian = test system: IGROV1 ovarian
HCT-15 colon = test system: HCT-15 colon
SR leukemia = test system: SR leukemia
EKVX NSCLC = test system: EKVX NSCLC
CCRF-CEM leukemia = test system: CCRF-CEM leukemia
MDA-MB-231 breast = test system: MDA-MB-231 breast
NCI-H460 lung = test system: NCI-H460 lung
OVCAR-3 ovarian = test system: OVCAR-3 ovarian
SF-268 CNS = test system: SF-268 CNS
SK-OV-3 ovarian = test system: SK-OV-3 ovarian
SF-295 CNS = test system: SF-295 CNS
UO-31 renal = test system: UO-31 renal
HOP-62 NSCLC = test system: HOP-62 NSCLC
SNB-75 CNS = test system: SNB-75 CNS
DU-145 prostate = test system: DU-145 prostate
LOX IMVI melanoma = test system: LOX IMVI melanoma
786-0 renal = test system: 786-0 renal
SNB-19 CNS = test system: SNB-19 CNS
RXF 393 renal = test system: RXF 393 renal
A549 NSCLC = test system: A549 NSCLC
HCC-2998 colon = test system: HCC-2998 colon
UACC-62 melanoma = test system: UACC-62 melanoma
PC-3 prostate = test system: PC-3 prostate

O=C(CNc1nc(-c2ccccc2)cs1)Nc1ccc(Cl)cc1[N+](=O)[O-]
GI50 (UACC-257 melanoma): 5.13 µM
TGI (UACC-257 melanoma): 17 µM
GI50 (MOLT-4 leukemia): 2.49 µM
TGI (MOLT-4 leukemia): 13.9 µM
GI50 (RPMI-8226 leukemia): 2.67 µM
TGI (RPMI-8226 leukemia): > 100 µM
GI50 (MDA-MB-468 breast): 2.02 µM
TGI (MDA-MB-468 breast): 5.69 µM
GI50 (HL-60(TB) leukemia): 2.03 µM
TGI (HL-60(TB) leukemia): 6.56 µM
GI50 (HS 578T breast): 2.39 µM
TGI (HS 578T breast): 9.58 µM
GI50 (HCT-116 colon): 2.95 µM
TGI (HCT-116 colon): 10.2 µM
GI50 (NCI-H226 lung): 2.64 µM
TGI (NCI-H226 lung): 13 µM
GI50 (KM12 colon): 3.36 µM
TGI (KM12 colon): 13 µM
GI50 (OVCAR-8 ovarian): 3.25 µM
TGI (OVCAR-8 ovarian): 13.1 µM
GI50 (ACHN renal): 2.77 µM
TGI (ACHN renal): 10.5 µM
GI50 (COLO 205 colon): 2.61 µM
TGI (COLO 205 colon): 5.91 µM
GI50 (MALME-3M melanoma): 2.21 µM
TGI (MALME-3M melanoma): 5.51 µM
GI50 (MDA-MB-435): 3.25 µM
TGI (MDA-MB-435): 9.42 µM
GI50 (SN12C renal): 2.81 µM
TGI (SN12C renal): 10.7 µM
GI50 (OVCAR-4 ovarian): 3.26 µM
TGI (OVCAR-4 ovarian): 13 µM
GI50 (M14 melanoma): 3.4 µM
TGI (M14 melanoma): 12.7 µM
GI50 (NCI/ADR-RES ovarian): 2.31 µM
TGI (NCI/ADR-RES ovarian): 6.53 µM
GI50 (HOP-92 NSCLC): 1.99 µM
TGI (HOP-92 NSCLC): 8.19 µM
GI50 (SK-MEL-2 melanoma): 3.04 µM
TGI (SK-MEL-2 melanoma): 9.74 µM
GI50 (SW-620 colon): 4.1 µM
TGI (SW-620 colon): 14.4 µM
GI50 (TK-10 renal): 6.12 µM
TGI (TK-10 renal): 17.9 µM
GI50 (SK-MEL-5 melanoma): 1.93 µM
TGI (SK-MEL-5 melanoma): 4.26 µM
GI50 (OVCAR-5 ovarian): 2.49 µM
TGI (OVCAR-5 ovarian): 8.24 µM
GI50 (BT-549 breast): 2.84 µM
TGI (BT-549 breast): 5.89 µM
GI50 (CAKI-1 renal): 1.85 µM
TGI (CAKI-1 renal): 9.85 µM
GI50 (NCI-H522 lung): 1.8 µM
TGI (NCI-H522 lung): 3.95 µM
GI50 (U251 CNS): 2.06 µM
TGI (U251 CNS): 6.56 µM
GI50 (K-562 leukemia): 2.49 µM
TGI (K-562 leukemia): > 100 µM
GI50 (MCF7 breast): 2.84 µM
TGI (MCF7 breast): 10.3 µM
GI50 (HT29 colon): 3.79 µM
TGI (HT29 colon): 14.4 µM
GI50 (A498 renal): 7.9 µM
TGI (A498 renal): 20.4 µM
GI50 (NCI-H23 lung): 3.08 µM
TGI (NCI-H23 lung): 12.6 µM
GI50 (T-47D breast): 2.46 µM
TGI (T-47D breast): 8.61 µM
GI50 (SF-539 CNS): 1.84 µM
TGI (SF-539 CNS): 4.05 µM
GI50 (SK-MEL-28 melanoma): 2.9 µM
TGI (SK-MEL-28 melanoma): 8.79 µM
GI50 (IGROV1 ovarian): 2.9 µM
TGI (IGROV1 ovarian): 12.1 µM
GI50 (HCT-15 colon): 1.98 µM
TGI (HCT-15 colon): 4.53 µM
GI50 (SR leukemia): 3.75 µM
TGI (SR leukemia): > 100 µM
GI50 (EKVX NSCLC): 1.82 µM
TGI (EKVX NSCLC): 9.71 µM
GI50 (CCRF-CEM leukemia): 3.29 µM
TGI (CCRF-CEM leukemia): > 100 µM
GI50 (MDA-MB-231 breast): 1.63 µM
TGI (MDA-MB-231 breast): 3.54 µM
GI50 (NCI-H460 lung): 4.18 µM
TGI (NCI-H460 lung): 17.5 µM
GI50 (OVCAR-3 ovarian): 2.36 µM
TGI (OVCAR-3 ovarian): 5.72 µM
GI50 (SF-268 CNS): 2.1 µM
TGI (SF-268 CNS): 7.08 µM
GI50 (SK-OV-3 ovarian): 4.65 µM
TGI (SK-OV-3 ovarian): 19 µM
GI50 (SF-295 CNS): 2.71 µM
TGI (SF-295 CNS): 11.1 µM
GI50 (UO-31 renal): 1.62 µM
TGI (UO-31 renal): 6.97 µM
GI50 (HOP-62 NSCLC): 4.23 µM
TGI (HOP-62 NSCLC): 17.3 µM
GI50 (SNB-75 CNS): 1.24 µM
TGI (SNB-75 CNS): 7.02 µM
GI50 (DU-145 prostate): 4.78 µM
TGI (DU-145 prostate): 18.7 µM
GI50 (LOX IMVI melanoma): 1.32 µM
TGI (LOX IMVI melanoma): 2.88 µM
GI50 (786-0 renal): 3.75 µM
TGI (786-0 renal): 14.2 µM
GI50 (SNB-19 CNS): 3.78 µM
TGI (SNB-19 CNS): 15 µM
GI50 (RXF 393 renal): 1.99 µM
TGI (RXF 393 renal): 6.5 µM
GI50 (A549 NSCLC): 3.93 µM
TGI (A549 NSCLC): 14.5 µM
GI50 (HCC-2998 colon): 2.71 µM
TGI (HCC-2998 colon): 10.2 µM
GI50 (UACC-62 melanoma): 1.33 µM
TGI (UACC-62 melanoma): 3.25 µM
GI50 (PC-3 prostate): 2.78 µM
TGI (PC-3 prostate): 16.2 µM
